Experimental data as given in patent publication US20120058999A1, “Substituted Tetrahydropyrrolopyrazine Compounds” (Gruenenthal GmbH, priority 2010, published 2012).

Tests used:
rat B1R = molecular target: T1, rat B1R (Rattus norvegicus, UniProt P97583); test: Functional investigation on the bradykinin 1 receptor, cell-based fluorescent calcium-mobilization assay (FLIPR), rat; settings: 10 μM test substance; CHO K1 cells transfected with rat B1R gene; agonist Des-Arg9-bradykinin at EC80; % of maximum achievable inhibition
T1 construct: expressed in transfected cells; host or cells: CHO K1 cells (stably transfected)
T1 sequence (P97583 1-337): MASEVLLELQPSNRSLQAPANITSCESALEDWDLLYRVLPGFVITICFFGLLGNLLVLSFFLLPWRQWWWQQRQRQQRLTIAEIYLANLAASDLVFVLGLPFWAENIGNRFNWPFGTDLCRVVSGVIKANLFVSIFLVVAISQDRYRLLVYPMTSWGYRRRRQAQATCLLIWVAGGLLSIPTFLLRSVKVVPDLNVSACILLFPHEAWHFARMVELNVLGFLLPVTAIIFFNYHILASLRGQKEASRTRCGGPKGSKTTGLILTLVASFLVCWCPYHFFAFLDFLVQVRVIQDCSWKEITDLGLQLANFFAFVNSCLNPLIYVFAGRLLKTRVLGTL
Experimental: (§1) The agonistic or antagonistic action of substances can be quantified on the bradykinin 1 receptor (B1R) of the human and rat species with ectopically expressing cell lines (CHO K1 cells) and with the aid of a Ca2+-sensitive dye (Fluo-4) using a fluorescent imaging plate reader (FLIPR). The value in % activation is based on the Ca2+ signal after addition of Lys-Des-Arg9 bradykinin (0.5 nM) or Des-Arg9 bradykinin (100 nM). Antagonists lead to a suppression of the Ca2+ influx following administration of the agonist. The % inhibition in comparison with the maximum achievable inhibition is indicated.
(§2) The agonistic or antagonistic action of substances can be determined on the bradykinin 1 receptor (B1R) of humans and rats by means of a cell-based fluorescent calcium-mobilization assay. According to this assay agonist-induced increase of intracellular free Ca^2+ is quantified by means of a Ca^2+-sensitive dye (Fluo-4 type, Molecular Probes Europe BV, Leiden, Netherlands), in a Fluorescent Imaging Plate Reader (FLIPR, Molecular Devices, Sunnyvale, USA) and/or the Novostar (BMG Labtech GmbH, Offenburg, Germany).
(§3) Chinese hamster ovary cells (CHO K1 cells), which are stably transfected with the human B1R gene (hB1R cells), or with the B1R gene of rats (rB1R cells) are used. For functional investigations these cells are seeded into black 96-well plates with a clear bottom (BD Biosciences, Heidelberg, Germany or Greiner, Frickenhausen, Germany) in a density of 20,000-35,000 cells/well. The cells are incubated overnight in a humidified atmosphere at 37° C. and 5% CO2 in culture medium (hB1R cells: Nutrient Mixture Ham's F12, Gibco Invitrogen GmbH, Karlsruhe, Germany or DMEM, Sigma-Aldrich, Taufkirchen, Germany; rB1R cells: D-MEM/F12, Gibco Invitrogen GmbH, Karlsruhe, Germany) with 10 vol. % FBS (foetal bovine serum, Gibco Invitrogen GmbH, Karlsruhe, Germany). On the following day the cells are loaded with the Ca^2+-sensitive dye Fluo-4-AM (Molecular Probes Europe BV, Leiden, Netherlands):
(§4) Method A: The medium of the cells is removed and cell plates are incubated with loading solution, which contains 2.13 μM Fluo-4-AM, 2.5 mM probenecid (Sigma-Aldrich, Taufkirchen, Germany), and 10 mM HEPES (Sigma-Aldrich, Taufkirchen, Germany) in HBSS buffer (Hank's buffered saline solution, Gibco Invitrogen GmbH, Karlsruhe, Germany) for 60 minutes at 37° C. After the plates are washed twice with HBSS buffer, HBSS buffer supplemented 0.1% BSA (bovine serum albumin; Sigma-Aldrich, Taufkirchen, Germany), 5.6 mM glucose and 0.05% gelatine (Merck KGaA, Darmstadt, Germany) is added. Cell plates are incubated for at least 20 minutes in the dark at room temperature before they are used for the Ca^2+ measurement in the FLIPR or Novostar. Method B: The plates are washed with buffer A (15 mM HEPES, 80 mM NaCl, 5 mM KCl, 1.2 mM CaCl2, 0.7 mM MgSO4, 2 mg/ml glucose, 2.5 mM probenecid) and subsequently loaded with buffer A containing 2.4 μM Fluo-4-AM and 0.025% pluronic F127 (Sigma-Aldrich, Taufkirchen, Germany) for 60 minutes at 37° C. Cell plates are washed twice with buffer A. Then, buffer A supplemented with 0.05% BSA and 0.05% gelatine is added and cell plates are incubated in the dark at room temperature for at least 20 minutes before measurement in the FLIPR or Novostar is started.
(§5) The Ca^2+-dependent fluorescence is measured both before and after the addition of substances (λex=488 nm, λem=540 nm). For quantification of the effect the highest fluorescence intensity (FC, fluorescence counts) over time is given.
(§6) The FLIPR protocol consists of two substance additions, done within the instrument while continuously monitoring the Ca^2+-dependent fluorescence at 540 nm. When the Novostar was used, one addition had to be done outside the instrument. First of all test substances (10 μM) are pipetted onto the cells and the intracellular Ca^2+ rise is compared with the control (hB1R: Lys-Des-Arg9-bradykinin >=50 nM; rB1R: Des-Arg9-bradykinin >=1 μM). […]

human B1R = molecular target: T2, human B1R (Homo sapiens, UniProt P46663); test: Functional investigation on the bradykinin 1 receptor, cell-based fluorescent calcium-mobilization assay (FLIPR), human; settings: 10 μM test substance; CHO K1 cells transfected with human B1R gene; agonist Lys-Des-Arg9-bradykinin at EC80; % of maximum achievable inhibition
T2 construct: expressed in transfected cells; host or cells: CHO K1 cells (stably transfected)
T2 sequence (P46663 1-353): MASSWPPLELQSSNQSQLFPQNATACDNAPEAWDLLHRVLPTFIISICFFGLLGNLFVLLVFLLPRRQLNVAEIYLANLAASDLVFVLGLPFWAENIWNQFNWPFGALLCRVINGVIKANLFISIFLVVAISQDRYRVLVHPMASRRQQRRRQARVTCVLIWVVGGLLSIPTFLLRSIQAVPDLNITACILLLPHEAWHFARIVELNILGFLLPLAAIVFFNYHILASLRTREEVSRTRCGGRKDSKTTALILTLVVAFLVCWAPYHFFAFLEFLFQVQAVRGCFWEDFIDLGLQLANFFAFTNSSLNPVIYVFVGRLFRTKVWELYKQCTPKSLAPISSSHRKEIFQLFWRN
Experimental: as §1, §2, §3, §4, §5, §6

Row | SMILES | inhibition at 10 µM (rat B1R) | inhibition at 10 µM (human B1R)
1 | COc1cc(C)c(S(=O)(=O)N2CCn3cccc3C2COCC(=O)N(C)[C@H]2CCC[C@@H](N3CCN(C)CC3)C2)c(C)c1 (relative stereo) [CC-01, 2-[[2-[(4-Methoxy-2,6-dimethyl-phenyl)sulfonyl]-1,2,3,4-tetrahydro-pyrrolo[1,2-a]pyrazin-1-yl]-methoxy]-N-methyl-N-[cis-3-(4-methyl-piperazin-1-yl)-cyclohexyl]-acetamide] | 105% | 100%
2 | COc1cc(C)c(S(=O)(=O)N2CCn3cccc3C2CCCC(=O)N(C)[C@H]2CCC[C@@H](N3CCN(C)CC3)C2)c(C)c1 (relative stereo) [CC-02, 4-[2-[(4-Methoxy-2,6-dimethyl-phenyl)sulfonyl]-1,2,3,4-tetrahydro-pyrrolo[1,2-a]pyrazin-1-yl]-N-methyl-N-[cis-3-(4-methyl-piperazin-1-yl)-cyclohexyl]-butyramide] | 104% | 87%
3 | COc1ccc2cc(S(=O)(=O)N3CCn4cccc4C3CC(=O)N(C)[C@H]3CCC[C@@H](N4CCN(C)CC4)C3)ccc2c1 (relative stereo) [CC-04, 2-[2-[(6-Methoxy-naphthalen-2-yl)sulfonyl]-1,2,3,4-tetrahydro-pyrrolo[1,2-a]pyrazin-1-yl]-N-methyl-N-[cis-3-(4-methyl-piperazin-1-yl)-cyclohexyl]-acetamide] | 103% | 100%
4 | CN1CCN([C@@H]2CCC[C@H](N(C)C(=O)CCC3c4cccn4CCN3S(=O)(=O)c3cccc(C(F)(F)F)c3)C2)CC1 (relative stereo) [CC-05, N-Methyl-N-[cis-3-(4-methyl-piperazin-1-yl)-cyclohexyl]-3-[2-[[3-(trifluoromethyl)phenyl]sulfonyl]-1,2,3,4-tetrahydro-pyrrolo[1,2-a]pyrazin-1-yl]-propionamide] | 91% | 43%
5 | COc1cc(C)c(S(=O)(=O)N2CCn3cccc3C2COCC(=O)N[C@H]2CCC[C@@H](N3CCN(C)CC3)C2)c(C)c1 (relative stereo) [CC-06, 2-[[2-[(4-Methoxy-2,6-dimethyl-phenyl)sulfonyl]-1,2,3,4-tetrahydro-pyrrolo[1,2-a]pyrazin-1-yl]-methoxy]-N-[cis-3-(4-methyl-piperazin-1-yl)-cyclohexyl]-acetamide] | 100% | 96%
6 | COc1ccc2cc(S(=O)(=O)N3CCn4cccc4C3CC(=O)N[C@H]3CCC[C@@H](N4CCN(C)CC4)C3)ccc2c1 (relative stereo) [CC-09, 2-[2-[(6-Methoxy-naphthalen-2-yl)sulfonyl]-1,2,3,4-tetrahydro-pyrrolo[1,2-a]pyrazin-1-yl]-N-[cis-3-(4-methyl-piperazin-1-yl)-cyclohexyl]-acetamide] | – | 100%
7 | COc1cc(C)c(S(=O)(=O)N2CCn3cccc3C2COCC(=O)N(C)C2CCCC(N3CCN(C(C)C)CC3)C2)c(C)c1 (stereo not shown) [CC-50, N-[3-(4-Isopropyl-piperazin-1-yl)-cyclohexyl]-2-[[2-[(4-methoxy-2,6-dimethyl-phenyl)sulfonyl]-1,2,3,4-tetrahydro-pyrrolo[1,2-a]pyrazin-1-yl]-methoxy]-N-methyl-acetamide] | – | 99%
8 | COc1cc(C)c(S(=O)(=O)N2CCn3cccc3C2CCCC(=O)N(C)C2CCCC(N3CCN(C(C)C)CC3)C2)c(C)c1 (stereo not shown) [CC-51, N-[3-(4-Isopropyl-piperazin-1-yl)-cyclohexyl]-4-[2-[(4-methoxy-2,6-dimethyl-phenyl)sulfonyl]-1,2,3,4-tetrahydro-pyrrolo[1,2-a]pyrazin-1-yl]-N-methyl-butyramide] | – | 99%
9 | COc1ccc2cc(S(=O)(=O)N3CCn4cccc4C3CC(=O)N(C)C3CCCC(N4CCN(C(C)C)CC4)C3)ccc2c1 (stereo not shown) [CC-52, N-[3-(4-Isopropyl-piperazin-1-yl)-cyclohexyl]-2-[2-[(6-methoxy-naphthalen-2-yl)sulfonyl]-1,2,3,4-tetrahydro-pyrrolo[1,2-a]pyrazin-1-yl]-N-methyl-acetamide] | – | 100%
10 | CC(C)N1CCN(C2CCCC(N(C)C(=O)CCC3c4cccn4CCN3S(=O)(=O)c3cccc(C(F)(F)F)c3)C2)CC1 (stereo not shown) [CC-53, N-[3-(4-Isopropyl-piperazin-1-yl)-cyclohexyl]-N-methyl-3-[2-[[3-(trifluoromethyl)phenyl]sulfonyl]-1,2,3,4-tetrahydro-pyrrolo[1,2-a]pyrazin-1-yl]-propionamide] | – | 87%
11 | COc1cc(C)c(S(=O)(=O)N2CCn3cccc3C2COCC(=O)N(C)C2CCCC(N3CCOCC3)C2)c(C)c1 (stereo not shown) [CC-54, 2-[[2-[(4-Methoxy-2,6-dimethyl-phenyl)sulfonyl]-1,2,3,4-tetrahydro-pyrrolo[1,2-a]pyrazin-1-yl]-methoxy]-N-methyl-N-(3-morpholin-4-yl-cyclohexyl)-acetamide] | – | 98%
12 | COc1cc(C)c(S(=O)(=O)N2CCn3cccc3C2CCCC(=O)N(C)C2CCCC(N3CCOCC3)C2)c(C)c1 (stereo not shown) [CC-55, 4-[2-[(4-Methoxy-2,6-dimethyl-phenyl)sulfonyl]-1,2,3,4-tetrahydro-pyrrolo[1,2-a]pyrazin-1-yl]-N-methyl-N-(3-morpholin-4-yl-cyclohexyl)-butyramide] | – | 88%
13 | COc1ccc2cc(S(=O)(=O)N3CCn4cccc4C3CC(=O)N(C)C3CCCC(N4CCOCC4)C3)ccc2c1 (stereo not shown) [CC-56, 2-[2-[(6-Methoxy-naphthalen-2-yl)sulfonyl]-1,2,3,4-tetrahydro-pyrrolo[1,2-a]pyrazin-1-yl]-N-methyl-N-(3-morpholin-4-yl-cyclohexyl)-acetamide] | – | 99%
14 | CN(C(=O)CCC1c2cccn2CCN1S(=O)(=O)c1cccc(C(F)(F)F)c1)C1CCCC(N2CCOCC2)C1 (stereo not shown) [CC-57, N-Methyl-N-(3-morpholin-4-yl-cyclohexyl)-3-[2-[[3-(trifluoromethyl)phenyl]sulfonyl]-1,2,3,4-tetrahydro-pyrrolo[1,2-a]pyrazin-1-yl]-propionamide] | – | 39%
